{
  "source": "patent US8933099B2",
  "about": "“Monocyclic pyridine derivative” (Eisai R&D Management Co., Ltd., priority 2013, dated 2015)",
  "tested_on": "human endometrial cancer cell line MFE280 xenograft",
  "experiment": "Antitumor effect in MFE280 subcutaneous xenograft model in mice",
  "format": "in vivo",
  "details": "oral, once a day for 14 days, tumor volume last day",
  "text": "Human endometrial cancer cell line MFE280 (DSMZ Number ACC-410), which had been cultured in an RPMI-1640 medium containing 10% FBS, and penicillin and streptomycin, were adjusted to a concentration of 4.7×10^7 cells/mL with Hanks' Balanced Salt Solution (GIBCO 1124020) to prepare a cell suspension, and the suspension was mixed with […] (BD Biosciences, Cat#354234) in a ratio of 1:1 to prepare a cell suspension in a concentration of 2.4×10^7 cells/ml. The cell suspension was inoculated in a volume of 100 μL into a subcutaneous part of a right flank of nude mice, 7 weeks of age (BALB/cAJcl-nu/nu, female, Clea Japan Inc.). Thirty five days after cell inoculation, the shortest diameter and the longest diameter of a tumor in each mouse were measured by using an electronic digital caliper (Digimatic™ caliper, Mitutoyo Corporation), so as to calculate the volume of the tumor in accordance with the following calculation formula: Tumor volume(mm^3)=Longest diameter(mm)×Shortest diameter(mm)×Shortest diameter(mm)/2\nOn the basis of the volumes of tumors obtained on the fast day of administration, the nude mice were grouped such that averages of the tumor volumes were substantially equal among the groups. Each test substance was dissolved in DMSO, Tween 80 was added thereto to prepare a solution in a 10-fold concentration and the thus prepared solution was stored at the freezer before use. Immediately before the administration, the stock solution was diluted with a 5% glucose solution to obtain a final administration solution (in which a ratio in % among DMSO, Tween 80 and the 5% glucose solution was 3.5:6.5:90). Each evaluation sample was orally administered to test substance administration group at a volume of 0.4 mL per 20 g of body weight once a day continuously for 14 days, and in a control group, an administration solvent was orally administered under the same conditions. Incidentally, the experiment was conducted on groups each consisting of 5 mice.\nWith respect to each of the control group and test substance administration group, a ratio of the weight measured on the final day to the weight measured on the first day (relative body weight: RBW) was calculated. If a ratio of the RBW of the test substance administration group/the RBW of the control group is 0.9 or more, the corresponding test substance administration group was defined as a well-tolerated. In the test substance administration group thus defined as well-tolerated, a ratio of the tumor volume of the test substance-dosing group to the tumor volume of the control group obtained on the last day (TIC) (%) was calculated, and shown in Table 28.",
  "data": [
    {"smiles": "CNC(=O)n1ccc2cc(Oc3ccnc(NC(=O)c4ccc(C5CCN(CCO)CC5)cc4)c3)c(OCCOC)cc21", "note": "[Example 22, 5-((2-(4-(1-(2-Hydroxyethyl)piperidin-4-yl)benzamide)pyridin-4-yl)oxy)-6-(2-methoxyethoxy)-N-methyl-1H-indole-1-carboxamide]", "values": [
      {"measurement": "T/C (%)", "setting": "6.25 mg/kg", "result": 72, "unit": "%"},
      {"measurement": "T/C (%)", "setting": "12.5 mg/kg", "result": 57, "unit": "%"},
      {"measurement": "T/C (%)", "setting": "25 mg/kg", "result": 31, "unit": "%"},
      {"measurement": "T/C (%)", "setting": "50 mg/kg", "result": 11, "unit": "%"}
    ]}
  ]
}
